For data set [1] the following is noted: cited from earlier work.
The next data set deals with PBM cells. Particulars: cited from earlier work; for Rate of dephosphorylation: in vivo.
Data set [2] concerns the target wild-type HIV-1 reverse transcriptase (Human immunodeficiency virus type 1 group M subtype B, UniProt P03366). Particulars: cited from earlier work.
In data set [3] the target is T1, thymidylate kinase (Homo sapiens, UniProt P23919).
T1 sequence (P23919 1-212): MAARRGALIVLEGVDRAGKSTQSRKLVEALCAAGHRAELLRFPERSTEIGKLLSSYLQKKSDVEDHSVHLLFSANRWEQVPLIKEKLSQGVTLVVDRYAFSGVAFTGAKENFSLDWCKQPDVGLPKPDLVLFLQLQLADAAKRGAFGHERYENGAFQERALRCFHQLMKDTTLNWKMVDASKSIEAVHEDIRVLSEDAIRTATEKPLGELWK
Description: Phosphorylation of AZT-MP to AZT-DP by thymidylate kinase. Type of data set: biochemical. Particulars: activated PBM cells of HIV-1 infected individuals not previously treated with AZT; SD of log-transformed values 0.89. An excerpt:
(§1) The initial intracellular phosphorylation step of AZT is catalyzed by thymidine kinase (TK). The most likely enzyme for monophosphorylation to AZT-MP is TK1, which is located primarily in the cytosol of cells in S-phase. […] Since the initial phosphorylation step of AZT to AZT-MP remains approximately linear with dose (5, 22), the Vmax,TK1 was assumed constant between individuals. […] The maximal rates of phosphorylation to AZT-MP and AZT-DP (Vmax,AZT-MP and Vmax,ThymK, respectively) in activated PBM cells were calculated using previously published enzyme kinetics measurements from a cohort of HIV-1 infected individuals who were not previously treated with AZT (36). […] The calculation assumed a volume of 0.21 μl/10^6, corresponding to a protein content of 0.12 mg (3, 33). The final phosphorylation step to active AZT-TP is catalyzed by nucleoside diphosphate kinase and is not rate limiting under physiological conditions. […] Therefore, the conversion rate of AZT-DP to AZT-TP (KDP,TP) was also assumed to be 0.28 h^−1. The assumed distributions for the rate constants describing the cellular phosphorylation and dephosphorylation of AZT are contained in Table 2.

For data set [4] the following is noted: single dose, intravenous and oral, HIV-1 infected individuals; cited from earlier work.
The target in data set [5] is T2, TK1 (Homo sapiens, UniProt P04183).
T2 sequence (P04183 1-234): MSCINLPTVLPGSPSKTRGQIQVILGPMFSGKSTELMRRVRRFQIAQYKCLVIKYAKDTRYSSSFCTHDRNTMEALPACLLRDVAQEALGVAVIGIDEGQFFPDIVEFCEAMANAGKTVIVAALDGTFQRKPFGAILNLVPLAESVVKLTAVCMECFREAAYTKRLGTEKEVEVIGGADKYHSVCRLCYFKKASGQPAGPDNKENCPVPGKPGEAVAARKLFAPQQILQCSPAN
Description: Phosphorylation of AZT to AZT-MP by thymidine kinase. Format: biochemical. The note with it: activated PBM cells.
Description: as §1

In data set [6] the target is T2, TK1. The note with it: concentration at 50% of maximal metabolism rate; read-out: Km versus TK1; cited from earlier work.
The next data set deals with HIV-1. Particulars: incubation up to week 28; cited from earlier work.
The next data set concerns HIV. Description: Randomized double blind placebo controlled study, HIV RNA viral load over 10 days of treatment. Type of data set: in vivo, human. The protocol:
(§2) Subjects with HIV RNA viral load (VL)≧5,000 copies/mL were enrolled and randomized 1:1:1 to DAPD 500 mg bid: DAPD 500 mg with AZT 300 mg bid: DAPD 500 mg with AZT 200 mg bid for 10 days. In each arm, subjects were randomized 3:1 to DAPD: placebo. VL was determined daily.

The conditions of data set [7]: Day 20; rank order of treatment groups (mg bid). On the procedure:
Twenty-four subjects were enrolled [placebo (n=2), AZT 200 mg (n=2), AZT 300 mg (n=2), DAPD 500 mg (n=6), DAPD/AZT 200 mg (n=6), and DAPD/AZT 300 mg (n=6)] and treated for 10 days. Hematological indices including hemoglobin (g/dl) and mean corpuscular volume (MCV, femtoliters) were measured at Screening, Day 1 prior to receiving treatment and Days 5, 10 and 20.

In data set [8] the target is T1, thymidylate kinase. Particulars: cited from earlier work; for Km: substrate AZT-MP, read-out: Km versus thymidylate kinase (Km,ThmK).
A short description of data set [9]: Tolerability in the DAPD/AZT clinical study. The note with it: 10 days of treatment, HIV-infected subjects. Type of data set: in vivo, human. The protocol:
as §2

Each structure is given as a SMILES string. Bounds are passed on as bounds.

Take `C[C@H](Cn1cnc2c(N)ncnc21)OCP(=O)(O)O` [tenofovir, 9-R-2-phosphonomethoxypropyl adenine]: the Cellular triphosphate half-life in data set [1] is above 60 h.
In the case of `Nc1nc2c(ncn2[C@H]2CO[C@@H](CO)O2)c(=O)[nH]1` [DXG, beta-D-(2R,4R)-1,3-dioxolane guanosine], in [1], the Cellular triphosphate half-life is around 9.5 h.
In the case of `Cc1cn([C@H]2C[C@H](N=[N+]=[N-])[C@@H](CO[P@](=O)(O)O[P@](=O)(O)OP(=O)(O)O)O2)c(=O)[nH]c1=O` [AZT-TP, zidovudine-triphosphate], the Rate of dephosphorylation in the data set with PBM cells was 0.28 h⁻¹. Besides, in [2], the IC50 is around 35 nM.
For the compound `Cc1cn([C@H]2C[C@H](N=[N+]=[N-])[C@@H](CO)O2)c(=O)[nH]c1=O` [AZT, 3′-azido-3′-deoxythymidine], the “Vmax,ThymK, median” value on thymidylate kinase [3] is 0.13 μmol/l per hr. In the data set on PBM cells, the “Accumulation of AZT nucleotides, stimulated versus resting PBM cells” value is given as 60 to 150 times. Besides, in the data set with PBM cells, the Rate of dephosphorylation was 0.28 h⁻¹. Also, the “Systemic clearance (Cl)” value in data set [4] is 18.3 to 25 mL/min/kg. In data set [4], the “Volume of distribution (Vss)” value was 1.3 to 1.4 L/kg. Moreover, the “Vmax,TK1, maximal rate of phosphorylation to AZT-MP” value at TK1 [5] is listed as 0.86 μmol/l per hr. Further, the Km at TK1 [6] was 0.6 µM; at thymidylate kinase [8] it was 12 µM. For the same compound, the “Drug resistant mutations selected in vitro” value in the data set with HIV-1 was “a mixture of K70K/R mutations at week 25”. The “Mean VL ± SD from baseline” value is −0.80 log10 copies/mL with HIV (Day 9, AZT 200 mg bid alone); −0.35 log10 copies/mL in the data set on HIV (Day 9, AZT 300 mg bid alone); −0.65 log10 copies/mL in the data set on HIV (Day 10, AZT 200 mg bid alone); −0.45 log10 copies/mL with HIV (Day 10, AZT 300 mg bid alone); −0.70 log10 copies/mL in the data set with HIV (Day 11, AZT 200 mg bid alone); −0.60 log10 copies/mL in the data set with HIV (Day 11, AZT 300 mg bid alone). Besides, the “Trend in decrease in hemoglobin from Baseline” value in [7] is “DAPD/AZT 300≧AZT 300≧DAPD/AZT 200>AZT 200>DAPD>placebo”. Moreover, the “Trend in increase in MCV from Baseline” value in data set [7] was “DAPD/AZT 300>AZT 300>DAPD/AZT 200>AZT 200>placebo>DAPD”.
For the compound `Cc1cn([C@H]2C[C@H](N=[N+]=[N-])[C@@H](COP(=O)(O)O)O2)c(=O)[nH]c1=O` [AZT-MP, zidovudine-monophosphate], the “Vmax,ThymK, median” value on thymidylate kinase [3] was determined as 0.13 μmol/l per hr. For the same compound, the Rate of dephosphorylation in the data set on PBM cells was 0.28 h⁻¹. Also, the Km on thymidylate kinase [8] was 12 µM. Besides, on thymidylate kinase [8] (thymidylate kinase), the “Vmax,AZT-MP as share of the Vmax versus thymidine-MP” value was 0.3%.
`Nc1nc(N)c2ncn([C@H]3CO[C@@H](CO)O3)c2n1` [DAPD, (−)-β-D-2,6-diaminopurine dioxolane]: the “Drug resistant mutations selected in vitro” value in the data set on HIV-1 was “a mixture of K65R and L74V at week 20”. The Tolerability entry in data set [9] is given as “well tolerated”. The “Mean VL ± SD from baseline” value in the data set on HIV (Day 9, DAPD 500 mg bid alone) was −0.83 ± 0.61 log10 copies/mL; in the data set on HIV (Day 10, DAPD 500 mg bid alone) it was −1.07 ± 0.80 log10 copies/mL; in the data set with HIV (Day 11, DAPD 500 mg bid alone), −1.03 ± 0.59 log10 copies/mL. The “Trend in decrease in hemoglobin from Baseline” value in data set [7] is “DAPD/AZT 300≧AZT 300≧DAPD/AZT 200>AZT 200>DAPD>placebo”. In data set [7], the “Trend in increase in MCV from Baseline” value was “DAPD/AZT 300>AZT 300>DAPD/AZT 200>AZT 200>placebo>DAPD”.
For `Cc1cn([C@H]2C[C@H](N=[N+]=[N-])[C@@H](COP(=O)(O)OP(=O)(O)O)O2)c(=O)[nH]c1=O` [AZT-DP, AZT-diphosphate], the Rate of dephosphorylation in the data set with PBM cells is 0.28 h⁻¹.

What is called IC50 is the concentration at which inhibition is half-maximal. One may read the Km as the concentration of substrate that gives half-maximal velocity.

These data come from patent publication US20110053884A1, “POTENT COMBINATIONS OF […] DRUGS THAT SELECT FOR THE K65R MUTATION IN THE HIV POLYMERASE” (priority 2007, published 2011).
